Values of other authors, collected in patent EP2908850B1, “A COMPOSITION COMPRISING GLUCORAPHANIN, MYROSINASE AND A BUFFERED SOLUTION FOR USE IN THE TREATMENT OF NEURODEGENERATIVE DISEASES” (Bramanti, Placido, priority 2012, dated 2014).

Settings: state of the art statement

- solubility in water: slightly soluble in water
- stability: unstable
SMILES: C[S+]([O-])CCCCN=C=S (racemic) [RS,SS-SFN, sulforaphane]
